The values that follow come from ChEMBL document CHEMBL4665835, “Synthesis and pharmacological evaluation of 11-(1,6-dimethyl-1,2,3,6-tetrahydropyridin-4-yl)-5H-dibenzo[b,e][1,4]diazepines with clozapine-like receptor occupancy at dopamine D/D receptor” (Bioorg Med Chem Lett, 2020).

SMILES strings stand for the structures.

In one series the target is D(2) dopamine receptor (Homo sapiens, UniProt P14416).
A short description of series [1]: In vivo receptor occupancy at dopamine D1 receptor in sc dosed rat brain by measuring free plasma concentration pretreated for 1 hr in presence of SCH-23390 by LC-MS/MS analysis. Format: functional.
The nature of series [2]: In vivo receptor occupancy at dopamine D1 receptor in sc dosed rat brain by measuring free plasma concentration pretreated for 1 hr in presence of raclopride by LC-MS/MS analysis. Format: functional.
A short description of series [3]: In vivo receptor occupancy at human dopamine D1 receptor in schizophrenia patient brain at 10 mCi, iv by PET scanning. The series is classed as functional.
Series [4] in a line: In vivo receptor occupancy at human dopamine D2 receptor in schizophrenia patient brain at 10 mCi, iv by PET scanning. The series is classed as functional.
The nature of series [5]: Drug metabolism in human hepatocyte microsome fraction assessed as GSH conjugate formation by LC-MS/MS analysis. Format: ADME. The following applies: microsomes.
Series [6] has as its target T1, D(1A) dopamine receptor (Homo sapiens, UniProt P21728). Briefly: Binding affinity to human dopamine D1 receptor.
The target of series [7] is 5-hydroxytryptamine receptor 2A (Homo sapiens, UniProt P28223). Briefly: Binding affinity to human 5HT2A receptor.
Series [8] deals with Voltage-gated inwardly rectifying potassium channel KCNH2 (Homo sapiens, UniProt Q12809). Description: Inhibition of human ERG.
Series [9] has as its target T1, D(1A) dopamine receptor. Description: Potency index, ratio of Clozapine Ki to compound Ki for binding affinity to human dopamine D1 receptor.

Chain of 5-hydroxytryptamine receptor 2A (P28223 whole entry): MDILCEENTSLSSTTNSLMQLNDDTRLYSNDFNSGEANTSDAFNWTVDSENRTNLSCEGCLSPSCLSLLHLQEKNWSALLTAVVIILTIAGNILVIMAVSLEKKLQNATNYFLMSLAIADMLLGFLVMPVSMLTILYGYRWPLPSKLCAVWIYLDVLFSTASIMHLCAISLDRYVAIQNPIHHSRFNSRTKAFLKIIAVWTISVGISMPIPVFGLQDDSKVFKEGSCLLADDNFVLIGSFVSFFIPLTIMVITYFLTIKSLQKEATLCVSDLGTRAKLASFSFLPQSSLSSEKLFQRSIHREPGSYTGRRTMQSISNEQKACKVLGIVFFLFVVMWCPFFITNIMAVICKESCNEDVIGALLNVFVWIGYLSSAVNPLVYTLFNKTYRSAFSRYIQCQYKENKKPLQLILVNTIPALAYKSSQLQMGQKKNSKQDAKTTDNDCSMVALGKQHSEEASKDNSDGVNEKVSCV
Chain of Voltage-gated inwardly rectifying potassium channel KCNH2 (Q12809 whole entry): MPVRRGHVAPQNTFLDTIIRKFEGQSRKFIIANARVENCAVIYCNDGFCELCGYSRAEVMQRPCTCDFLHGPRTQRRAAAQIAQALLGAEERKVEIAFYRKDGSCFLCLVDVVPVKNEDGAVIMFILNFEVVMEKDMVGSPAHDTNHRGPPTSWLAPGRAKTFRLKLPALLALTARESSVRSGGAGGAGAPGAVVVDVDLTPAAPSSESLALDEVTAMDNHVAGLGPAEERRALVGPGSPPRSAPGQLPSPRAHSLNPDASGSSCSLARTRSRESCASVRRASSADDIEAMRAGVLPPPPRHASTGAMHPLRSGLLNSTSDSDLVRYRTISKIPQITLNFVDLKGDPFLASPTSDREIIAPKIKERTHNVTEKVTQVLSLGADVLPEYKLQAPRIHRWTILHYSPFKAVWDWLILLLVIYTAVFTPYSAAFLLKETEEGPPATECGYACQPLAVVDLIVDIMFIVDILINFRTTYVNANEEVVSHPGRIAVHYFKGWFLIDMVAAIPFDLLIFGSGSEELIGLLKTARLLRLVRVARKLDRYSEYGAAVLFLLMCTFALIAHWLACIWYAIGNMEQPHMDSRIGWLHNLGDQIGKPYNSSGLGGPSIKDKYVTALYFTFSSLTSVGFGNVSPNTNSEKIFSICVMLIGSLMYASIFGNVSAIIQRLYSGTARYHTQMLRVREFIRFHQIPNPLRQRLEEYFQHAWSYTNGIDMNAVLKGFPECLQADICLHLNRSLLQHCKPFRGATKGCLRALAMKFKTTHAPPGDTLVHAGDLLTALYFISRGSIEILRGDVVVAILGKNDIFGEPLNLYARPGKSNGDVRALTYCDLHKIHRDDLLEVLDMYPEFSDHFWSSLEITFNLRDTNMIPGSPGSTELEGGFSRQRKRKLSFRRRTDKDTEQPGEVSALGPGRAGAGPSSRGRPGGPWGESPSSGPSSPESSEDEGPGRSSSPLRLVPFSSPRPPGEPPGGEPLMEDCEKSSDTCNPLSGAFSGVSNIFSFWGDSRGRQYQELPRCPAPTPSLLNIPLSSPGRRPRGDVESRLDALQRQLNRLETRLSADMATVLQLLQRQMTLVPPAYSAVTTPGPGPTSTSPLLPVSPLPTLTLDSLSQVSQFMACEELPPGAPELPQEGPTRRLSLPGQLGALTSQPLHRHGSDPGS
T1 sequence (P21728 whole entry): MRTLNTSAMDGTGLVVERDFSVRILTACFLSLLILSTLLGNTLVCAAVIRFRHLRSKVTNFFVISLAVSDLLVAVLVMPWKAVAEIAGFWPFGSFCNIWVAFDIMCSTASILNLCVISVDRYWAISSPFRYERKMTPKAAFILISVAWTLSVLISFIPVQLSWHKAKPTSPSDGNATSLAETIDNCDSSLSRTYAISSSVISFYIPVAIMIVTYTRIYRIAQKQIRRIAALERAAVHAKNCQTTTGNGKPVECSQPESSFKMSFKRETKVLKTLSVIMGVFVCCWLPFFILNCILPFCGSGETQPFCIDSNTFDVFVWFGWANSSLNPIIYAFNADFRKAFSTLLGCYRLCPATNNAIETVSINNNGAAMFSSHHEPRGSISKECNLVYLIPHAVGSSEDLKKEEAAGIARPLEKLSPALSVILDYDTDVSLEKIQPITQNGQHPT
Chain of D(2) dopamine receptor (P14416 whole entry): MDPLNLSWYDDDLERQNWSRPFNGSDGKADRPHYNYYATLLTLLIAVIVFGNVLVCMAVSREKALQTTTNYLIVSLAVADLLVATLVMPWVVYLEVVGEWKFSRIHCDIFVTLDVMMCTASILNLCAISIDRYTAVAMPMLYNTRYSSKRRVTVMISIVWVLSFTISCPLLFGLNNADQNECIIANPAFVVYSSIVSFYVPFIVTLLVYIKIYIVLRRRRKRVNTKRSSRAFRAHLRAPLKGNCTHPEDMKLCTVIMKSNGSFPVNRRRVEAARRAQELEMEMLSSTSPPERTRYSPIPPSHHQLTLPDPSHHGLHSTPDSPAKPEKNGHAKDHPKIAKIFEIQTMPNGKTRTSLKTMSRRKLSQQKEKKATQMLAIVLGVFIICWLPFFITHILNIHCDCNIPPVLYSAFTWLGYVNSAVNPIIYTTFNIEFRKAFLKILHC
Description for D(2) dopamine receptor: Binding affinity to human dopamine D2 receptor

`COc1ccc2c(c1)C(C1=C[C@H](C)N(C)CC1)=Nc1cc(C)ccc1N2`: on D(2) dopamine receptor, the Ki was > 1400 nM.
For the molecule `CN1CCN(C2=Nc3cc(Cl)ccc3Nc3ccccc32)CC1` [CLOZAPINE], the values for the Occ50 in series [1] and in series [2] were 24.2 nM and 73.4 nM, respectively. Also, the Occ worked out at 55% in series [3] and 61% in series [4].
Turning to `C[C@@H]1C=C(C2=Nc3cc(Cl)ccc3Nc3ccccc32)CCN1C`, the Drug metabolism in series [5] was determined as 0.84 µmol/L. Moreover, the Ki on D(1A) dopamine receptor [6] was 780 nM; at D(2) dopamine receptor, > 1400 nM.
With `Cc1ccc2c(c1)C(C1=C[C@H](C)N(C)CC1)=Nc1cc(Cl)ccc1N2`, the Ki in [7] was 0.094 nM; at D(1A) dopamine receptor [6], 2.3 nM; at D(2) dopamine receptor, 63 nM. In addition, the Drug metabolism in series [5] amounted to 0.35 µmol/L.
For `C[C@H]1C=C(C2=Nc3cc(Cl)ccc3Nc3ccc(F)cc32)CCN1C`, half-maximal inhibition in [8] (IC50) was put at 1200 nM. The Drug metabolism in [5] was 0.24 µmol/L. The Ki on D(1A) dopamine receptor [6] is 0.2 nM; at D(2) dopamine receptor it was 127 nM.
Consider `Cc1ccc2c(c1)N=C(C1=C[C@H](C)N(C)CC1)c1cc(C)ccc1N2`, for which the Ki on D(2) dopamine receptor was > 1400 nM.
For `OCCOCCN1CCN(C2=Nc3ccccc3Sc3ccccc32)CC1` [QUETIAPINE], the Occ in series [3] came out at 12%; in [4] it was 30%.
On to `Cc1ccc2c(c1)N=C(C1=C[C@H](C)N(C)CC1)c1cc(F)ccc1N2`, for which the IC50 in series [8] came to 1600 nM. Further, in [5], the Drug metabolism amounted to 0.25 µmol/L. In addition, the Ki on D(1A) dopamine receptor [6] is 5.5 nM; on D(2) dopamine receptor, 453 nM.
As for `Cc1ccc2c(c1)N=C(C1=C[C@H](C)N(C)CC1)c1cc(OC(F)(F)F)ccc1N2`, the Ki was found to be 2.4 nM on D(1A) dopamine receptor [6] and 1220 nM on D(2) dopamine receptor.
Regarding `CCc1ccc2c(c1)C(C1=C[C@H](C)N(C)CC1)=Nc1cc(Cl)ccc1N2`, the Ratio at D(1A) dopamine receptor [9] turned out to be 10. For the same molecule, the values for the Occ50 in series [1] and in series [2] were 1 nM and 6 nM, respectively. Also, the IC50 in series [8] turned out to be 1100 nM. Also, the inhibition constant Ki in series [7] amounted to 0.094 nM; on D(1A) dopamine receptor [6], 1.4 nM; at D(2) dopamine receptor, 28 nM. Besides, in [5], the Drug metabolism is 0.53 µmol/L.
Regarding `Cc1ccc2c(c1)C(C1=C[C@H](C)N(C)CC1)=Nc1ccccc1N2`, the Drug metabolism in series [5] amounted to 0.85 µmol/L. Besides, the Ki at D(1A) dopamine receptor [6] is 7.9 nM; on D(2) dopamine receptor, 819 nM.
`C[C@H]1C=C(C2=Nc3cc(Cl)ccc3Nc3ccc(Cl)cc32)CCN1C` showed an IC50 in [8] of 900 nM. Moreover, in series [5], the Drug metabolism is 0.72 µmol/L. In addition, the Ki came to 0.9 nM at D(1A) dopamine receptor [6] and 106 nM at D(2) dopamine receptor.
Regarding `CN1CC=C(C2=Nc3cc(Cl)ccc3Nc3ccccc32)CC1`, in series [5], the Drug metabolism is 0.21 µmol/L. The figures for the Ki at D(1A) dopamine receptor [6] and at D(2) dopamine receptor were 380 nM and 1380 nM, respectively.
Turning to `C[C@H]1C=C(C2=Nc3ccccc3Nc3ccc(Cl)cc32)CCN1C`, the IC50 in [8] was 600 nM. Moreover, in series [5], the Drug metabolism is 0.67 µmol/L. Also, the Ki is 1.6 nM at D(1A) dopamine receptor [6] and 124 nM at D(2) dopamine receptor.
As to `C[C@H]1C=C(C2=Nc3cc(Cl)ccc3Nc3ccc(C#N)cc32)CCN1C`, it took 600 nM to reach half-maximal inhibition in series [8] (IC50). For the same molecule, the Drug metabolism in series [5] stood at 0.49 µmol/L. Further, the Ki on D(1A) dopamine receptor [6] was 1.1 nM; at D(2) dopamine receptor, 135 nM.
For `C[C@H]1C=C(C2=Nc3cc(Cl)ccc3Nc3ccccc32)CCN1C`, in [5], the Drug metabolism came out at 1.3 µmol/L. The values for the Ki at D(1A) dopamine receptor [6] and at D(2) dopamine receptor were 51 nM and 479 nM, respectively.
The molecule `CCc1ccc2c(c1)C(C1=C[C@H](C)N(C)CC1)=Nc1ccccc1N2` registered an IC50 in [8] of 600 nM. For the same molecule, in series [5], the Drug metabolism came to 0.86 µmol/L. Also, the Ki on D(1A) dopamine receptor [6] was 4 nM; at D(2) dopamine receptor it was 167 nM.
Turning to `Cc1nc2n(c(=O)c1CCN1CCC(c3noc4cc(F)ccc34)CC1)CCCC2` [RISPERIDONE], the Occ is recorded as 25% in series [3] and 81% in series [4].
With `CN1CCN([C@@H]2C[C@@H](c3ccccc3)c3ccc(Cl)cc32)CC1(C)C` [ZICRONAPINE], the Occ50 in [1] is on record as 23 nM; in series [2] it was 6.6 nM. Further, the Drug metabolism in series [5] was 0 µmol/L.
For `Cc1cc2c(s1)Nc1ccccc1N=C2N1CCN(C)CC1` [OLANZAPINE], the results for the Occ50 in series [1] and in [2] were 3.8 nM and 480 nM, respectively. For the same molecule, the Drug metabolism in series [5] was 0.077 µmol/L. Besides, the figures for the Occ in series [3] and in [4] were 43% and 79%, respectively.
Turning to `CN1CCC(C2=Nc3cc(Cl)ccc3Nc3ccccc32)=CC1(C)C`, the Drug metabolism in series [5] came out at 0.99 µmol/L. Moreover, the Ki amounted to 55 nM on D(1A) dopamine receptor [6] and 1180 nM at D(2) dopamine receptor.
For the molecule `C[C@H]1C=C(C2=Nc3cc(Cl)ccc3Nc3ccc(OC(F)(F)F)cc32)CCN1C`, in series [8], the IC50 turned out to be 1900 nM. The Ki in series [7] is 0.14 nM; at D(1A) dopamine receptor [6], 2 nM; on D(2) dopamine receptor it was 110 nM. In [5], the Drug metabolism is 0.58 µmol/L.
As to `Cc1ccc2c(c1)N=C(C1=C[C@H](C)N(C)CC1)c1ccccc1N2`, the Ki on D(2) dopamine receptor is > 1400 nM.
In the case of `CCOc1ccc2c(c1)C(C1=C[C@H](C)N(C)CC1)=Nc1cc(Cl)ccc1N2`, at D(1A) dopamine receptor [9], the Ratio was 10. Moreover, in series [8], the IC50 came out at 900 nM. In addition, the Ki stood at 0.091 nM in series [7], 3.7 nM on D(1A) dopamine receptor [6] and 47 nM on D(2) dopamine receptor. Besides, the Drug metabolism in series [5] turned out to be 0.77 µmol/L.
In [8], `Cc1ccc2c(c1)N=C(C1=C[C@H](C)N(C)CC1)c1cc(Cl)ccc1N2` gave an IC50 of 1100 nM. Further, the Drug metabolism in [5] was 0.38 µmol/L. Also, the inhibitory constant (Ki) at D(1A) dopamine receptor [6] worked out at 0.48 nM; at D(2) dopamine receptor, 98 nM.
Take `COc1ccc2c(c1)C(C1=C[C@H](C)N(C)CC1)=Nc1cc(Cl)ccc1N2`: in series [8], the midpoint of inhibition, the IC50, lay at 1500 nM. In addition, the Drug metabolism in series [5] is 0.89 µmol/L. Besides, the Ki at D(1A) dopamine receptor [6] was found to be 2 nM; at D(2) dopamine receptor, 69 nM.
